Data taken from paper PMC12016938, “A small molecule PKCε inhibitor reduces hyperalgesia induced by paclitaxel or opioid withdrawal” (JCI Insight, 2025).

Key:
[1] = system: paclitaxel-induced hyperalgesia; assay: Paclitaxel-induced hyperalgesia, Randall-Selitto paw pressure test; conditions: male rats; 1 mg/kg i.p. on days 1, 3, 5, 7
Method: We tested if CP612 reverses this hyperalgesia. Male rats received repeated injections of paclitaxel (1 mg/kg, i.p. on days 1, 3, 5, and 7). Twenty-four hours after the last dose of paclitaxel, rats were administered vehicle (2 mL/kg, i.p.) or CP612 (20 mg/kg, i.p.).
Mechanical nociceptive thresholds in rats were quantified by the Randall-Selitto paw pressure test using an Ugo Basile Analgesy-Meter. This device applies a linearly increasing mechanical force to the dorsum or plantar region of the rat hind paw. The mechanical nociceptive threshold is defined as the force in grams at which a rat withdraws its paw. The higher the force to elicit paw withdrawal, the higher the pain threshold (and the lower the sensitivity to pain). For studies testing nociceptive thresholds after the PKCε activator ψεRACK, or after the cancer chemotherapeutic drug paclitaxel, rats were placed into cylindrical acrylic restrainers for 40 minutes before starting each session. The restrainers had lateral ports to allow access to the hind paw, as previously described ([35]), and pain thresholds were measured by applying force to the dorsum of the hind paw. Prior to starting experiments, baseline mechanical nociceptive threshold was obtained as the mean of 2–3 readings on 1 hind paw in each rat.

[2] = system: self-administration (addictive potential); assay: I.v. self-administration of CP612, between-session progressive ratio and demand curve; conditions: rat, in vivo
Method: We tested the addictive potential of CP612 by examining the extent to which rats are willing to work to obtain CP612. Rats were initially trained to self-administer either saline, morphine (500 μg/kg/i.v. infusion), or 1 of 3 different doses of CP612 (75, 150, or 300 μg/kg/i.v. infusion) for 4 days at fixed ratio 1 (FR1, where 1 nose poke delivers 1 infusion).
During the second phase, the ratio to obtain an infusion increased geometrically every other day (FR1, FR3, FR6, FR12, FR24, FR48, and FR96).
Data (number of self-infusions) were also fitted in an economic-demand curve, which provides an estimate of the motivation to obtain drugs and their addictive potential ([20]). We measured elasticity (α), which is the relative change in consumption as a function of price (i.e., ratio of nose pokes required to obtain an infusion). Behavior is considered “inelastic” when consumption is insensitive to price and “elastic” when consumption is sensitive to price. We also measured Pmax, which is the price at which intake switches from inelastic to elastic. […] (Figure 8B).
Rats not immediately anesthetized were eliminated from the study.
Following this initial acquisition phase at FR1, the ratio to obtain the drug was increased geometrically every other day: FR3 (3 nose pokes are required to obtain 1 infusion of morphine), FR6, FR12, FR24, FR48, and FR96. This allows for analysis of drug consumption as a function of “price” using demand curves for behavioral economics, which can estimate the motivation to obtain drugs and their “addictive potential” ([20]). For this, data from each rat were fitted to the equation log Q = log Q0 + k (e ^–α(Q0 ^C) – 1), where Q represents consumption (number of self-infusions), and Q0 represents the level of consumption at the lowest price. C represents price for the drug (i.e., the ratio), and k is set to a constant accounting for the estimated range of consumption in logarithmic units (k = 4 in these studies). The symbol α is the relative change in consumption across changes in price (ratio). Behavior is considered “inelastic” when consumption is insensitive to price (i.e., the curve is flat, and consumption is maintained despite increases in price), and it switches to “elastic” when consumption is sensitive to price (i.e., when the curve is steep and consumption declines with increases in price). […] We also compared groups for their average intake in the consumption-price curves by measuring α (elasticity) and Pmax.

[3] = system: morphine self-administration; format: in vivo; conditions: morphine 500 µg/kg/infusion alone, individual rats and group mean
Method: Because many patients with chronic pain take opioids for pain management ([8], [9]), we wanted to know if CP612 would change opioid intake. Therefore, we investigated if adding CP612 to the morphine solution during self-administration (i.e., a cocktail of morphine and CP612) modifies self-administration of morphine. We tested rats from the prior experiment for self-administration of morphine (500 μg/kg/i.v. infusion). Rats were first tested under a FR6 to reestablish responding.
Rats not immediately anesthetized were eliminated from the study. This excluded 2 rats from all experiments.

Structure (SMILES): CC(=O)O[C@H]1C(=O)[C@@]2(C)[C@H]([C@H](OC(=O)c3ccccc3)[C@]3(O)C[C@H](OC(=O)[C@H](O)[C@@H](NC(=O)c4ccccc4)c4ccccc4)C(C)=C1C3(C)C)[C@]1(OC(C)=O)CO[C@@H]1C[C@@H]2O [Paclitaxel]
- Effect of paclitaxel on nociceptive threshold [1]: induced hyperalgesia

Structure (SMILES): CN1CC[C@]23c4c5ccc(O)c4O[C@H]2[C@@H](O)C=C[C@H]3[C@H]1C5 [Mor]
- AVG AH (FR3) [2]: 25.72
- AVG AH (FR6) [2]: 41.83
- AVG AH (FR12) [2]: 75.17
- AVG AH (FR24) [2]: 136.00
- AVG AH (FR48) [2]: 160.11
- AVG AH (FR96) [2]: 163.28
- AVG IH (FR1_D1 to D4) [2]: 7.83
- AVG IH (FR1_Last 2 FR1 days) [2]: 4.44
- AVG IH (FR1_Last 4 FR1 days) [2]: 6.31
- AVG IH (FR3) [2]: 9.28
- AVG IH (FR6) [2]: 8.33
- AVG IH (FR12) [2]: 9.39
- AVG IH (FR24) [2]: 10.72
- AVG IH (FR48) [2]: 14.00
- AVG IH (FR96) [2]: 15.22
- AVG Inf (FR3) [2]: 7.00
- AVG Inf (FR6) [2]: 6.22
- AVG Inf (FR12) [2]: 5.56
- AVG Inf (FR24) [2]: 5.00
- AVG Inf (FR48) [2]: 2.83
- AVG Inf (FR96) [2]: 1.17
- AVG Latency (FR1_D1 to D4) [2]: 2.60
- AVG Latency (FR1_Last 2 FR1 days) [2]: 0.81
- AVG Latency (FR1_Last 4 FR1 days) [2]: 0.93
- AVG Latency (FR3) [2]: 0.62
- AVG Latency (FR6) [2]: 1.19
- AVG Latency (FR12) [2]: 1.12
- AVG Latency (FR24) [2]: 1.19
- AVG Latency (FR48) [2]: 0.69
- AVG Latency (FR96) [2]: 0.92
- D1 AH (FR1) [2]: 13.44
- D1 AH (FR3) [2]: 24.67
- D1 AH (FR6) [2]: 38.44
- D1 AH (FR12) [2]: 75.11
- D1 AH (FR24) [2]: 135.67
- D1 AH (FR48) [2]: 167.78
- D1 AH (FR96) [2]: 169.67
- D1 IH (FR1) [2]: 11.56
- D1 IH (FR3) [2]: 9.11
- D1 IH (FR6) [2]: 7.11
- D1 IH (FR12) [2]: 9.22
- D1 IH (FR24) [2]: 10.56
- D1 IH (FR48) [2]: 13.22
- D1 IH (FR96) [2]: 17.11
- D1 Inf (FR1) [2]: 8.78
- D1 Inf (FR3) [2]: 6.56
- D1 Inf (FR6) [2]: 5.67
- D1 Inf (FR12) [2]: 5.67
- D1 Inf (FR24) [2]: 4.89
- D1 Inf (FR48) [2]: 2.89
- D1 Inf (FR96) [2]: 1.33
- D1 Latency (FR1) [2]: 7.37
- D1 Latency (FR3) [2]: 0.52
- D1 Latency (FR6) [2]: 0.51
- D1 Latency (FR12) [2]: 0.93
- D1 Latency (FR24) [2]: 0.99
- D1 Latency (FR48) [2]: 0.71
- D1 Latency (FR96) [2]: 1.02
- D2 AH (FR1) [2]: 11.44
- D2 AH (FR3) [2]: 26.78
- D2 AH (FR6) [2]: 45.22
- D2 AH (FR12) [2]: 75.22
- D2 AH (FR24) [2]: 136.33
- D2 AH (FR48) [2]: 152.44
- D2 AH (FR96) [2]: 156.89
- D2 IH (FR1) [2]: 6.89
- D2 IH (FR3) [2]: 9.44
- D2 IH (FR6) [2]: 9.56
- D2 IH (FR12) [2]: 9.56
- D2 IH (FR24) [2]: 10.89
- D2 IH (FR48) [2]: 14.78
- D2 IH (FR96) [2]: 13.33
- D2 Inf (FR1) [2]: 8.89
- D2 Inf (FR3) [2]: 7.44
- D2 Inf (FR6) [2]: 6.78
- D2 Inf (FR12) [2]: 5.44
- D2 Inf (FR24) [2]: 5.11
- D2 Inf (FR48) [2]: 2.78
- D2 Inf (FR96) [2]: 1.00
- D2 Latency (FR1) [2]: 0.74
- D2 Latency (FR3) [2]: 0.72
- D2 Latency (FR6) [2]: 1.88
- D2 Latency (FR12) [2]: 1.31
- D2 Latency (FR24) [2]: 1.39
- D2 Latency (FR48) [2]: 0.68
- D2 Latency (FR96) [2]: 0.82
- D3 AH (FR1) [2]: 14.11
- D3 IH (FR1) [2]: 8.44
- D3 Inf (FR1) [2]: 9.22
- D3 Latency (FR1) [2]: 1.40
- D4 AH (FR1) [2]: 14.00
- D4 IH (FR1) [2]: 4.44
- D4 Inf (FR1) [2]: 9.56
- D4 Latency (FR1) [2]: 0.90
- last AH (FR1) [2]: 14.00
- last IH (FR1) [2]: 4.44
- last Inf (FR1) [2]: 9.78
- last Latency (FR1) [2]: 0.71
- last-1 AH (FR1) [2]: 14.00
- last-1 IH (FR1) [2]: 4.44
- last-1 Inf (FR1) [2]: 9.56
- last-1 Latency (FR1) [2]: 0.90
- last-2 AH (FR1) [2]: 14.11
- last-2 IH (FR1) [2]: 8.44
- last-2 Inf (FR1) [2]: 9.22
- last-2 Latency (FR1) [2]: 1.40
- last-3 AH (FR1) [2]: 12.67
- last-3 IH (FR1) [2]: 7.89
- last-3 Inf (FR1) [2]: 8.89
- last-3 Latency (FR1) [2]: 0.69
- D3 Breakin Point (PR) ([3]; Day 3, progressive ratio): 38.3
- D1 AH (FR6) ([3]; active hole, Day 1, fixed ratio): 49.2
- D2 AH (FR6) ([3]; active hole, Day 2, fixed ratio): 68.6
- D3 AH (PR) ([3]; active hole, Day 3, progressive ratio): 186.1
- D1 IH (FR6) ([3]; inactive hole, Day 1, fixed ratio): 4.7
- D2 IH (FR6) ([3]; inactive hole, Day 2, fixed ratio): 5.2
- D3 IH (PR) ([3]; inactive hole, Day 3, progressive ratio): 8.8
- D1 Inf (FR6) ([3]; infusions, Day 1, fixed ratio): 6.7
- D2 Inf (FR6) ([3]; infusions, Day 2, fixed ratio): 9.4
- D3 Inf (PR) ([3]; infusions, Day 3, progressive ratio): 10.5
- D1 mg/kg (FR6) ([3]; intake, Day 1, fixed ratio): 3.3 mg/kg
- D2 mg/kg (FR6) ([3]; intake, Day 2, fixed ratio): 4.7 mg/kg
- D3 mg/kg (PR) ([3]; intake, Day 3, progressive ratio): 5.2 mg/kg
- D1 Latency (FR6) ([3]; time to first self-administered infusion, Day 1, fixed ratio): 3.3 min
- D2 Latency (FR6) ([3]; time to first self-administered infusion, Day 2, fixed ratio): 2.8 min
